Source: patent US20080292584A1 (priority 2005, published 2008)
Several values for one entry are separate records, joined by “and”; a condition that tells them apart may be missing. Equal values may be shown once.

How the values were obtained:
CYP2C8 [1] = target: T1, CYP2C8 (Homo sapiens, UniProt P10632); assay: Inhibition of CYP2C8 activity in pooled human liver microsomes (paclitaxel 5 μM to 6-hydroxy paclitaxel); type: in vitro ADME
T1 sequence (P10632 1-490): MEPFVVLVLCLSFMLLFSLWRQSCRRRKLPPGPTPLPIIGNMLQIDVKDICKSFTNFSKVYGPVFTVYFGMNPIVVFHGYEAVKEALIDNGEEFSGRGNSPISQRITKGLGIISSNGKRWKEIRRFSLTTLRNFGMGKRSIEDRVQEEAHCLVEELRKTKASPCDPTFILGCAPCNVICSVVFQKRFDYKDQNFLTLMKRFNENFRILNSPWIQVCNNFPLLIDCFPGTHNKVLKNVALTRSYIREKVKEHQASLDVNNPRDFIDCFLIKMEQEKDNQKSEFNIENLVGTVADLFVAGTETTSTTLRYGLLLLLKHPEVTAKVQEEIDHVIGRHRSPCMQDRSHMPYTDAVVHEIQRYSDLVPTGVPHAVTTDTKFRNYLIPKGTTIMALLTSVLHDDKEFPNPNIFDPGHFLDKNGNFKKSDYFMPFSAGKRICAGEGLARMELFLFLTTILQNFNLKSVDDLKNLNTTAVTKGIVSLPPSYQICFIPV
Description: All other incubations were for 30 minutes.
Four replicates were performed.
Two replicates were performed.

CYP2E1 [2] = target: T2, CYP2E1 (Homo sapiens, UniProt P05181); assay: Induction/inhibition of CYP2E1 activity in cryopreserved human hepatocytes (chlorzoxazone)
T2 sequence (P05181 whole entry): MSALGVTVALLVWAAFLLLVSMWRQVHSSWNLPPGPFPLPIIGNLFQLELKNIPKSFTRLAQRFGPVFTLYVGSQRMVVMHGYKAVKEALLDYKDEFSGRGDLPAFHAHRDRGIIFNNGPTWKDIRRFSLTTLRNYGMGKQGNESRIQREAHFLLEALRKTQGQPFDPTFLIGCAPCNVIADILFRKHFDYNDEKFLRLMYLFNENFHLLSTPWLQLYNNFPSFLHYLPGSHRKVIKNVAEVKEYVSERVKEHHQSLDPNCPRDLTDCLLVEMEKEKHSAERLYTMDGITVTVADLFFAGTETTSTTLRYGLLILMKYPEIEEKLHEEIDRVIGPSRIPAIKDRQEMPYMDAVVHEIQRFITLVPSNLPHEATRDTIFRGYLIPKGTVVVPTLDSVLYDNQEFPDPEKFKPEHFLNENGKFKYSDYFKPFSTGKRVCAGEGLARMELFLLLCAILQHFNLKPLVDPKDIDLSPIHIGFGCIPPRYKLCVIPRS
Source text: Hepatocytes from three human donors were obtained from a cryopreserved hepatocyte bank (In Vitro Technologies, Inc., USA). After thawing, viable hepatocytes were transferred to collagen-coated 48-well plates for attachment in plating medium (DMEM stock (Dulbecco's modified Eagle's medium, supplemented with bovine serum albumin, fructose, N-(2-hydroxyethyl)piperazine-N′-(2-ethanesulfonate) (HEPES), and sodium bicarbonate), supplemented with antibiotics, bovine serum, hydrocortisone, insulin and minimum essential medium (MEM) nonessential amino acids). After attachment to the collagen matrix, plating medium was replaced with sandwich medium (plating medium supplemented with VITROGEN) and incubated until use.
The supplemented KHB was replaced with 150 μL supplemented KHB containing the appropriate isoform-selective substrate and incubated for 4 hrs prior to termination by adding 150 μL ice-cold methanol, except for the CYP2C8 incubations which were terminated by adding 150 μL acetonitrile.
All substrates were dissolved in acetonitrile.
Replicate trials and controls were performed. […] Additionally, reference control samples were included to evaluate inducibility of CYP2B6, CYP2C9, and CYP2C19 in the test system.
Mean specific activity values with associated p-values≦0.05 were deemed to be statistically significant.

[3] = 400 mg oral dosage form; humans; cited from earlier work
[4] = in vivo; Bruce et al. 1966; cited from earlier work
CYP2E1 [5] = target: T2, CYP2E1; assay: Metabolism of metaxalone by expressed recombinant human CYP2E1 (Example 1); conditions: 30 min
Description: Commercially available microsomes from baculovirus-infected insect cells containing singly-expressed recombinant wild-type (*1 allele) human CYP enzymes and cDNA-expressed human cytochrome p450 oxidoreductase [BD SUPERSOMES Enzymes; BD Biosciences Discovery Labware (Woburn, Mass.)] were used.
After a 5-minute pre-incubation, an NADPH regenerating system (NRS) was added to the incubation mixtures to initiate reactions, with a final incubation volume of 0.5 mL. Incubations were continued for 30 minutes, and then terminated, except for those for CYP2C19, which were incubated for 36 minutes prior to termination.
Matrix controls were performed to determine the background signal from the matrix components (microsomes (10 pmol p450), 01N Tris buffer, NRS, and 1% methanol). […] After a 5-minute pre-incubation, 2% sodium bicarbonate solution was added to the incubation mixtures. Incubation was for 30 minutes at a final volume of 0.5 mL. Matrix and metabolic negative controls were terminated by adding an equal volume of methanol. […] Analysis of samples was subsequent to storage at −70° C.

CYP2C8 [6] = target: T1, CYP2C8; assay: Chemical inhibition of metaxalone turnover in human liver microsomes, CYP2C8 inhibitor quercetin; conditions: 1 mg/mL HLM, 60 min, with quercetin, single replicates
Description: (§1) Human liver microsomes pooled from 15 individuals (male and female) (Pool HMMC-PL020; CellzDirect, Inc., In Vitro Products and Services Division) were used in some experiments of this study.
(§2) % Turnover=100−{[TA(final)]/[mean of TA(0 min)]}×100,
(§3) % Inhibition of Turnover=100{1−([TA(0 min)]−[TA(final-inhibitor)])/([TA(0 min)]−[TA(final-no inhibitor)])}.
(§4) The inhibitors or vehicle control were incubated with the pooled human liver microsomes (1 mg/mL) and NADPH (1 mM) in 0.1 M phosphate buffer, pH 7.4. […] Incubations were conducted in triplicate and terminated by addition of organic solvent. Samples were extracted and analyzed by LC-MS/MS as described above.

CYP2D6 = CYP2D6 (Homo sapiens, UniProt P10635); assay: Chemical inhibition of metaxalone turnover in human liver microsomes, CYP2D6 inhibitor quinidine; conditions: 7.5 μM metaxalone; 1 mg/mL HLM; 60 min; with quinidine; single replicates
Sequence of CYP2D6 (P10635 whole entry): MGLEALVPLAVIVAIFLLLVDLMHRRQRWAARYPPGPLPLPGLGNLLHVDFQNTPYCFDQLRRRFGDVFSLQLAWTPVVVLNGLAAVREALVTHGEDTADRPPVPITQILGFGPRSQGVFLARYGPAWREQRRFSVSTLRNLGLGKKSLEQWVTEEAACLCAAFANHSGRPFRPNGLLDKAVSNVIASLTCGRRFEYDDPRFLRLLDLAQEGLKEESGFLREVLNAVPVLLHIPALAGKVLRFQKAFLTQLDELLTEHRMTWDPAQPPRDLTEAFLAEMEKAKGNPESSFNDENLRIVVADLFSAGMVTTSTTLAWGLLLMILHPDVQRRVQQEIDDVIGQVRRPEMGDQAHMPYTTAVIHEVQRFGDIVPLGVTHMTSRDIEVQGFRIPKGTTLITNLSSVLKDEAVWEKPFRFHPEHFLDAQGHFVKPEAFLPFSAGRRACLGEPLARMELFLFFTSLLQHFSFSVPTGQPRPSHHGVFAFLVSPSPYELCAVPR
Description: as §1, §2, §3, §4

Cc1cc(C)cc(OCC2CNC(=O)O2)c1 (stereo not drawn) [metaxalone, 5-[(3,5-dimethylphenoxy)methyl]-2-oxazolidinone]
inhibition of CYP activity at a statistically significant level (CYP2C8 [1]; 0.3-100 μM metaxalone): no tested concentration of metaxalone inhibited activity
Inhibitor (CYP2C8 [1]; CYP isozyme 2C8, summary of studies): 0
Percent of VC (CYP2C8 [1]; metaxalone 0.3 μM): 92.7%
Specific Activity Individual (CYP2C8 [1]; metaxalone 0.3 μM): 19.3 pmol/min/mg protein and 15.2 pmol/min/mg protein and 16.1 pmol/min/mg protein
Specific Activity Mean ± SD (CYP2C8 [1]; metaxalone 0.3 μM): 16.8 ± 2.18 pmol/min/mg protein
Percent of VC (CYP2C8 [1]; metaxalone 1 μM): 103%
Specific Activity Individual (CYP2C8 [1]; metaxalone 1 μM): 18.6 pmol/min/mg protein and 18.3 pmol/min/mg protein and 19.1 pmol/min/mg protein
Specific Activity Mean ± SD (CYP2C8 [1]; metaxalone 1 μM): 18.7 ± 0.406 pmol/min/mg protein
Percent of VC (CYP2C8 [1]; metaxalone 3 μM): 109%
Specific Activity Individual (CYP2C8 [1]; metaxalone 3 μM): 20.0 pmol/min/mg protein and 19.9 pmol/min/mg protein and 19.6 pmol/min/mg protein
Specific Activity Mean ± SD (CYP2C8 [1]; metaxalone 3 μM): 19.9 ± 0.232 pmol/min/mg protein
Percent of VC (CYP2C8 [1]; metaxalone 30 μM): 101%
Specific Activity Individual (CYP2C8 [1]; metaxalone 30 μM): 19.9 pmol/min/mg protein and 18.3 pmol/min/mg protein and 16.9 pmol/min/mg protein
Specific Activity Mean ± SD (CYP2C8 [1]; metaxalone 30 μM): 18.4 ± 1.52 pmol/min/mg protein
Percent of VC (CYP2C8 [1]; metaxalone 100 μM): 97.8%
Specific Activity Individual (CYP2C8 [1]; metaxalone 100 μM): 17.6 pmol/min/mg protein and 20.6 pmol/min/mg protein and 15.1 pmol/min/mg protein
Specific Activity Mean ± SD (CYP2C8 [1]; metaxalone 100 μM): 17.8 ± 2.76 pmol/min/mg protein
Inducer/Inhibitor (CYP2E1 [2]; CYP isozyme 2E1, summary of studies): 0
Specific Activity Individual (CYP2E1 [2]; Donor 1, Metaxalone 0.4 μM): 2.58 pmol/min/million cells and 2.66 pmol/min/million cells and 2.19 pmol/min/million cells
Specific Activity Mean ± SD (CYP2E1 [2]; Donor 1, Metaxalone 0.4 μM): 2.47 ± 0.249 pmol/min/million cells
Percent of VC (CYP2E1 [2]; Donor 1, Metaxalone 4 μM): 104%
Specific Activity Individual (CYP2E1 [2]; Donor 1, Metaxalone 4 μM): 2.57 pmol/min/million cells and 2.47 pmol/min/million cells and 2.87 pmol/min/million cells
Specific Activity Mean ± SD (CYP2E1 [2]; Donor 1, Metaxalone 4 μM): 2.64 ± 0.210 pmol/min/million cells
Percent of VC (CYP2E1 [2]; Donor 1, Metaxalone 40 μM): 104%
Specific Activity Individual (CYP2E1 [2]; Donor 1, Metaxalone 40 μM): 2.54 pmol/min/million cells and 2.66 pmol/min/million cells and 2.69 pmol/min/million cells
Specific Activity Mean ± SD (CYP2E1 [2]; Donor 1, Metaxalone 40 μM): 2.63 ± 0.0782 pmol/min/million cells
Percent of VC (CYP2E1 [2]; Donor 2, Metaxalone 0.4 μM): 104%
Specific Activity Individual (CYP2E1 [2]; Donor 2, Metaxalone 0.4 μM): 0.631 pmol/min/million cells and 0.683 pmol/min/million cells and 0.765 pmol/min/million cells
Specific Activity Mean ± SD (CYP2E1 [2]; Donor 2, Metaxalone 0.4 μM): 0.693 ± 0.0673 pmol/min/million cells
Percent of VC (CYP2E1 [2]; Donor 2, Metaxalone 4 μM): 89.6%
Specific Activity Individual (CYP2E1 [2]; Donor 2, Metaxalone 4 μM): 0.564 pmol/min/million cells and 0.605 pmol/min/million cells and 0.626 pmol/min/million cells
Specific Activity Mean ± SD (CYP2E1 [2]; Donor 2, Metaxalone 4 μM): 0.598 ± 0.0317 pmol/min/million cells
Percent of VC (CYP2E1 [2]; Donor 2, Metaxalone 40 μM): 99.6%
Specific Activity Individual (CYP2E1 [2]; Donor 2, Metaxalone 40 μM): 0.558 pmol/min/million cells and 0.633 pmol/min/million cells and 0.804 pmol/min/million cells
Specific Activity Mean ± SD (CYP2E1 [2]; Donor 2, Metaxalone 40 μM): 0.665 ± 0.126 pmol/min/million cells
Percent of VC (CYP2E1 [2]; Donor 3, Metaxalone 0.4 μM): 90.7%
Specific Activity Individual (CYP2E1 [2]; Donor 3, Metaxalone 0.4 μM): 0.449 pmol/min/million cells and 0.474 pmol/min/million cells and 0.462 pmol/min/million cells
Specific Activity Mean ± SD (CYP2E1 [2]; Donor 3, Metaxalone 0.4 μM): 0.462 ± 0.0125 pmol/min/million cells
Percent of VC (CYP2E1 [2]; Donor 3, Metaxalone 4 μM): 87.7%
Specific Activity Individual (CYP2E1 [2]; Donor 3, Metaxalone 4 μM): 0.468 pmol/min/million cells and 0.464 pmol/min/million cells and 0.406 pmol/min/million cells
Specific Activity Mean ± SD (CYP2E1 [2]; Donor 3, Metaxalone 4 μM): 0.446 ± 0.0348 pmol/min/million cells
Percent of VC (CYP2E1 [2]; Donor 3, Metaxalone 40 μM): 93.9%
Specific Activity Individual (CYP2E1 [2]; Donor 3, Metaxalone 40 μM): 0.470 pmol/min/million cells and 0.495 pmol/min/million cells and 0.469 pmol/min/million cells
Specific Activity Mean ± SD (CYP2E1 [2]; Donor 3, Metaxalone 40 μM): 0.478 ± 0.0146 pmol/min/million cells
effects on CYP activity (CYP2E1 [2]; any of the tested concentrations (0.4, 4.0, 40 μM)): no significant effects
observed increase of extent of absorption (AUC0-inf) with food relative to fasted treatment [3]: 115.4%
observed increase of extent of absorption (AUC0-t) with food relative to fasted treatment [3]: 123.5%
observed increase of peak plasma concentration (Cmax) with food relative to fasted treatment [3]: 177.5%
metaxalone converted to a carboxylic acid derivative [4]: 27%
Metaxalone Present Adjusted Individual (CYP2E1 [5]; metaxalone 0.5 μM): 0.357 µM and 0.345 µM and 0.353 µM
Metaxalone Present Adjusted Mean ± SD (CYP2E1 [5]; metaxalone 0.5 μM): 0.352 ± 0.00648 µM
Metaxalone Present Raw (CYP2E1 [5]; metaxalone 0.5 μM): 0.1787 µM and 0.1724 µM and 0.1766 µM
Percent of Metabolic Negative Control Individual (CYP2E1 [5]; metaxalone 0.5 μM): 101% and 97.0% and 99.4%
Percent of Metabolic Negative Control Mean ± SD (CYP2E1 [5]; metaxalone 0.5 μM): 99.0 ± 1.83%
Metaxalone Present Adjusted Individual (CYP2E1 [5]; metaxalone 2.5 μM): 1.77 μM and 1.76 μM (2×)
Metaxalone Present Adjusted Mean ± SD (CYP2E1 [5]; metaxalone 2.5 μM): 1.76 ± 0.00318 µM
Metaxalone Present Raw (CYP2E1 [5]; metaxalone 2.5 μM): 0.883 µM and 0.8799 µM and 0.8821 µM
Percent of Metabolic Negative Control Individual (CYP2E1 [5]; metaxalone 2.5 μM): 104%
Percent of Metabolic Negative Control Mean ± SD (CYP2E1 [5]; metaxalone 2.5 μM): 104 ± 0.188%
Metaxalone Present Adjusted Individual (CYP2E1 [5]; metaxalone 25 μM): 17.5 µM and 22.3 µM and 17.8 µM
Metaxalone Present Adjusted Mean ± SD (CYP2E1 [5]; metaxalone 25 μM): 19.2 ± 2.71 µM
Metaxalone Present Raw (CYP2E1 [5]; metaxalone 25 μM): 8.732 µM and 11.15 µM and 8.879 µM
Percent of Metabolic Negative Control Individual (CYP2E1 [5]; metaxalone 25 μM): 98.2% and 125% and 99.9%
Percent of Metabolic Negative Control Mean ± SD (CYP2E1 [5]; metaxalone 25 μM): 108 ± 15.3%
% Turnover (CYP2C8 [6]; 0.75 μM metaxalone): 14.3%
Conc. (CYP2C8 [6]; 0.75 μM metaxalone): 661 nM
% Turnover (CYP2C8 [6]; 7.5 μM metaxalone): −1.8%
% inhibition of turnover (CYP2C8 [6]; 7.5 μM metaxalone): 107%
% Turnover (CYP2D6): 11.1%
